“Also recorded” adds a separate entry of the source. Where a SMILES comes first, the peptide text is derived from it. The star is where a group is joined. Myristoyl = CCCCCCCCCCCCCC(=O)*
Tests used:
MDA-MB-231 cells = type: cell-based, human; conditions: 50 μM peptide, 48 hours, n = 1;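 on COI, Live Single Cells (Cell Count): live means Hoechst-negative events among single cells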
Source text: Non-adherent cells were removed during the washing steps.

[1] = test system: CD44^hiCD24^lo CSCs in MCF7 cells; experiment: FACS analysis of CD44^hiCD24^lo CSCs in MCF7 cells; type: cell-based, human; conditions: 50 μM peptide, 48 hours
Procedure: (§1) P1 Analogues were synthesized in accordance with the procedure of Example 5. 4×10^4 MDA-MB-231 cells or 1×10^4 induced or non-induced MCF7 cells were seeded in a 12 well plate with 1 mL complete media overnight. Induced MCF7 cells were prepared by stimulating cells with PMA/TGF-β and incubating for 12 hours. Cells were treated with 50 μM test peptide (dissolved in water) for 48 hours. Cells were then washed twice with 1 mL PBS and harvested by trypsinisation. Non-adherent cells were removed during the washing steps. Adherent cells were collected, and were subsequently stained with anti-human CD44, CD24 and Hoechst 33342 antibodies on ice for 30 mins. FACS was performed on BD FACS LSRII to measure the percentage of CD44^hiCD24^lo CSCs by dividing CD44^hiCD24^lo events by total live cell counts (Hoechst negative population) (as described in Fillmore and Kuperwasser (2007) Breast Cancer Res, 9: 303). The percentage of viable cells was calculated by dividing total live cell events by total single cells as described previously (Siemann and Keng (1986), Cancer Res, 46: 3556-3559).

MCF7 cells = conditions: MCF7 cells, 50 μM peptide, 48 hours
Procedure: as §1

induced MCF7 cells = experiment: FACS CSC inhibition in induced MCF7 cells; type: cell-based, human; conditions: induced MCF7 cells (PMA/TGF-β), 50 μM peptide, 48 hours
Procedure: as §1

PD-L1 = experiment: Immunofluorescence (confocal) of PD-L1 in MDA-MB-231 cells, Example 6; type: cell-based, human; conditions: 50 μM, 72 hours
Procedure: (§2) Confocal laser scanning microscopy was employed to investigate the effect of P1, P2 and P3 (synthesized in accordance with Example 5) on the nuclear expression of PD-L1 and acetylated PD-L1 (PDL1-Ac) (FIG. 9).
(§3) 1×10^4 MDA-MB-231 cells were seeded onto coverslips in 12 well plates with DMEM media overnight. Cells were treated with 50 μM P1, P2, P3 or P4 or vehicle (water) for 72 hours. Treated cells were fixed with 3.7% formaldehyde, and then permeabilised by incubating with 1% Triton X-100 for 20 min. Cells were then probed with a rabbit anti-PD-L1 antibody (Santa Cruz Biotechnology) or rabbit anti-acetylated PD-L1 (generated as described above) and visualized with a donkey anti-rabbit AF 488. Cover slips were mounted on glass microscope slides with ProLong Diamond Antifade reagent (Life Technologies). Protein targets were localized using confocal laser scanning microscopy. Single 0.5 μm sections were obtained using a Leica DMI8 microscope using 100× oil immersion lens running LAX software. The final image was obtained by averaging four sequential images of the same section. Digital images were analyzed using ImageJ software as described above.

[2] = test system: PD-L1 acetylated at lysine 263; experiment: Immunofluorescence (confocal) of acetylated PD-L1 in MDA-MB-231 cells, Example 6; type: cell-based, human; conditions: 50 μM, 72 hours
Procedure: as §2, §3

SNAI1 = experiment: Immunofluorescence of SNAI1 in MDA-MB-231 cells; type: cell-based, human; conditions: 50 μM, 72 hours
Procedure: (§4) 1×10^4 MDA-MB-231 cells were seeded onto coverslips in 12 well plates with DMEM media. Cells were treated with 50 μM P1, P2, P3 or P4 (synthesized in accordance with Example 5) or vehicle (water) for 72 hours. Cells were fixed with 3.7% formaldehyde and permeabilized with 2% Triton-X-100, then probed with primary mouse antibodies to CSV, DMNT1, H3K9me3 or 5-methylcytosine; primary goat antibodies to SNAI1, SETDB1 or ABCB5; or primary rabbit antibodies to PD-L1, EGFR, EHMT2; followed by the corresponding secondary antibody conjugated to anti-mouse Alexa-Fluor 568, anti-goat Alexa-Fluor 633 or anti-rabbit Alexa-Fluor 488. Confocal laser scanning microscopy was used to measure the TFI, TNFI and TCFI as described above. At least 20 individual cells were analyzed per sample.

EHTM2 = experiment: Immunofluorescence of EHTM2 in MDA-MB-231 cells; type: cell-based, human; conditions: 50 μM, 72 hours
Procedure: (§5) Cells were treated with 50 μM P1, P2, P3 or P4 (synthesized in accordance with Example 5) or vehicle (water) for 72 hours. […] Confocal laser scanning microscopy was used to measure the […] and TCFI as described above. At least 20 individual cells were analyzed per sample.

SETDB1 = experiment: Immunofluorescence of SETDB1 in MDA-MB-231 cells; type: cell-based, human; conditions: 50 μM, 72 hours
Procedure: as §5

p300 = molecular target: T1, p300 (Homo sapiens, UniProt Q09472); experiment: Immunofluorescence of p300 localization in MDA-MB-231 cells; type: cell-based; conditions: 50 μM
T1 construct: endogenous in cells; host or cells: MDA-MB-231
Procedure: (§6) The effect of P1, P2, P3 and P4 (synthesized in accordance with Example 5) on p300 localization was examined using confocal laser scanning microscopy. […] Cover slips were mounted on glass microscope slides with ProLong Diamond Antifade reagent (Life Technologies). Protein targets were localized by confocal laser scanning microscopy as described above. TNFI and PCC(r) were calculated using ImageJ software as previously described.

[3] = test system: acetylated PD-L1 and p300; experiment: Colocalization (PCC(r)) of acetylated PD-L1 and p300 in MDA-MB-231 cells; type: cell-based, human; conditions: 50 μm
Procedure: as §6

PD-L2 = experiment: Immunofluorescence of PD-L2 in MDA-MB-231 cells; type: cell-based, human; conditions: 50 μM, 72 hours, relative to the control
Procedure: 1×10^4 MDA-MB-231 cells were treated with 50 μM P1, P2, P3 (synthesized in accordance with Example 5) or vehicle (water) for 72 hours. Cells were fixed with 3.7% formaldehyde and permeabilized with 2% Triton-X-100, then probed with a primary rabbit antibody to PD-L2, primary goat antibody to PD-L1 and primary mouse antibody to CSV, followed by the corresponding secondary antibody conjugated to anti-mouse Alexa-Fluor 568, anti-goat Alexa-Fluor 633 or anti-rabbit Alexa-Fluor 488. Confocal laser scanning microscopy was used to measure the TNFI and TCFI as described above. At least 20 individual cells were analyzed per sample.

H3K9me3 = experiment: Immunofluorescence of H3K9me3 in MDA-MB-231 cells; type: cell-based, human; conditions: 50 μM, 72 hours
Procedure: as §4

5-methylcytosine = experiment: Immunofluorescence of 5-methylcytosine in MDA-MB-231 cells; type: cell-based, human; conditions: 50 μM, 72 hours
Procedure: as §4

ABCBS = experiment: Immunofluorescence of ABCBS in MDA-MB-231 cells; type: cell-based, human; conditions: 50 μM, 72 hours
Procedure: as §4

T1 sequence (Q09472 whole entry): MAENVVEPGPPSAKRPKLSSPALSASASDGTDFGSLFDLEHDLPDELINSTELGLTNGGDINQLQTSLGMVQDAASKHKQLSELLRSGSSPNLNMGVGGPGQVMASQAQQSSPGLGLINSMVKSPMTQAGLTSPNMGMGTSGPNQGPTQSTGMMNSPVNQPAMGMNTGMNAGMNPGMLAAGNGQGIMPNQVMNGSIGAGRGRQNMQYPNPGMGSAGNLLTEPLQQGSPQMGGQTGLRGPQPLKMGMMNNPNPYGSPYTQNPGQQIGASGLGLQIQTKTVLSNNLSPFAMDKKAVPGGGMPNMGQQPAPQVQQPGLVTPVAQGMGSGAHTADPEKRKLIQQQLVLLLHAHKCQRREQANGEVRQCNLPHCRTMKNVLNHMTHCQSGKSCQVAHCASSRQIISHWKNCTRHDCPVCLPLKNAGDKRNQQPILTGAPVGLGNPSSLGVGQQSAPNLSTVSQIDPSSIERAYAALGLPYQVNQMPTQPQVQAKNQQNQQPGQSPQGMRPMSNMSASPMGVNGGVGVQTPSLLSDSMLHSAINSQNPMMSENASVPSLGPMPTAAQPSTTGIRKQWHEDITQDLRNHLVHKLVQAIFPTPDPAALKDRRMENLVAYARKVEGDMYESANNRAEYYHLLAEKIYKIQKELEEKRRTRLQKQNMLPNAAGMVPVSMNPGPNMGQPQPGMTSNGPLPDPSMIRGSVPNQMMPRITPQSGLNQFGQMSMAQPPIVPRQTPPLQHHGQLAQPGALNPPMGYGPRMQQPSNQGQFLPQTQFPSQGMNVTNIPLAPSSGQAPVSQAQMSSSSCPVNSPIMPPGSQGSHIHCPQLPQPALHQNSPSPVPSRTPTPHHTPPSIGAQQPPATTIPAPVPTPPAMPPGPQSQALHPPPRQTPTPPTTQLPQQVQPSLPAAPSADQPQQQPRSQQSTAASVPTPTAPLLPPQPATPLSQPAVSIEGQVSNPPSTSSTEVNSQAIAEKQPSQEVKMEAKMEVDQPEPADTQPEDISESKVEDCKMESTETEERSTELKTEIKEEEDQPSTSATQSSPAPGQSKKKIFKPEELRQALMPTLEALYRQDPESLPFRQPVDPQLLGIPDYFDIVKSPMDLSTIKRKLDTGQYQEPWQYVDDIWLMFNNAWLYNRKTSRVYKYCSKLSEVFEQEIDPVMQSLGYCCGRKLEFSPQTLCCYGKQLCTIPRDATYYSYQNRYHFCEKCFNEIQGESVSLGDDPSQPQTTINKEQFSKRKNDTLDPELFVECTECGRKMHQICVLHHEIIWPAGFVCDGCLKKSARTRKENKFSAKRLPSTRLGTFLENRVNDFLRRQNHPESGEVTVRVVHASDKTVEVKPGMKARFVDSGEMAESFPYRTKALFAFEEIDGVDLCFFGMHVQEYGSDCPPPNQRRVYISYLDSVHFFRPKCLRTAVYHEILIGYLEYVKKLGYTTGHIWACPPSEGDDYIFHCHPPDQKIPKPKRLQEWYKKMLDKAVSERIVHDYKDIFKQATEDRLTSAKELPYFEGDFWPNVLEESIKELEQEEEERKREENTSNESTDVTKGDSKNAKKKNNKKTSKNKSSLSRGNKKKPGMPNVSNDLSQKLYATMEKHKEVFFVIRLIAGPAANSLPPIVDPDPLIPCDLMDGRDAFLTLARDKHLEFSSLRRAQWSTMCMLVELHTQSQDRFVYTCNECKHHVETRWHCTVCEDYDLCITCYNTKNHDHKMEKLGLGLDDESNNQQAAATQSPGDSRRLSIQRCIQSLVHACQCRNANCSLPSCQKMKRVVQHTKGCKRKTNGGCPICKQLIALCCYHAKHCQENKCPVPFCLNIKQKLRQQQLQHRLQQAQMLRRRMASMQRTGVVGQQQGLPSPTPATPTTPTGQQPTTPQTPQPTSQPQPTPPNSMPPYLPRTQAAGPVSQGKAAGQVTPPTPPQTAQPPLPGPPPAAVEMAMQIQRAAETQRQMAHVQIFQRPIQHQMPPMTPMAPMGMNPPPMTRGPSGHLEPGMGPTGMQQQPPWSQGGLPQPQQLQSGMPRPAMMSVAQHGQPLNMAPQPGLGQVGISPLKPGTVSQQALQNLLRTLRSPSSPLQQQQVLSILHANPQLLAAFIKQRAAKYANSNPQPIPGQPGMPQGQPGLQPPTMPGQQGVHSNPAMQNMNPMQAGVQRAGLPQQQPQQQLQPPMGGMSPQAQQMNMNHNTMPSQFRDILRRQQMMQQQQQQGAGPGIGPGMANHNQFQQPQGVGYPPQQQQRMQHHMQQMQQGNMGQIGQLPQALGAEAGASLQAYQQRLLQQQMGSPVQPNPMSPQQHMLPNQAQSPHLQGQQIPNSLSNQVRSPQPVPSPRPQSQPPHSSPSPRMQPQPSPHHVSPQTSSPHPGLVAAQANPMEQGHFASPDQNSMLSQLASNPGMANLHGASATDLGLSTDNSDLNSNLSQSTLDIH

SMILES: CCCCCCCCCCCCCC(=O)N[C@@H](CC(C)C)C(=O)N[C@H](C(=O)N[C@@H](Cc1ccccc1)C(=O)N[C@H](C(=O)N[C@@H](Cc1ccccc1)C(=O)N[C@@H](CCCNC(=N)N)C(=O)N[C@@H](CC(C)C)C(=O)N[C@@H](CCCNC(=N)N)C(=O)N[C@@H](CCCCN)C(=O)NCC(=O)N[C@@H](CCCNC(=N)N)C(=O)N[C@@H](CCSC)C(=O)N[C@@H](CCSC)C(=O)N[C@@H](CC(=O)O)C(=O)N[C@H](C(=O)N[C@@H](CCCCN)C(=O)N[C@@H](CCCCN)C(N)=O)C(C)C)[C@@H](C)CC)[C@@H](C)O [Peptide P1, Myristoyl-LTFIFRLRKGRMMDVKK-NH2] (Myristoyl-LTFIFRLRKGRMMDVKK-NH2)
- COI (Cell Count) (MDA-MB-231 cells): 2038
- COI, Live Single Cells (Cell Count) (MDA-MB-231 cells): 1395
- COI, Single (Cell Count) (MDA-MB-231 cells): 1523
- Total Cell Count (MDA-MB-231 cells): 4339
- Viable Cells (%) (MDA-MB-231 cells): 91.60%
- CD44^hiCD24^lo CSC % [1]: 4.36%
- COI/Single Cells/Live/CD44^hiCD24^lo CSCs Count [1]: 233
- % Viable Cells (MCF7 cells): 95.65%
- COI Count (MCF7 cells): 6567
- COI/Single Cell Count (MCF7 cells): 5585
- COI/Single Cells/Live Count (MCF7 cells): 5342
- Total Count (MCF7 cells): 10000
- CSC inhibition (%) (induced MCF7 cells): 38.10%
- nuclear expression of PD-L1 (PD-L1): inhibited
- Fn/c of acetylated PD-L1 [2]: significantly reduced
- total nuclear fluorescence intensity (TNFI) of acetylated PD-L1 [2]: significantly reduced
- expression of SNAI1 (SNAI1): uniformly inhibited
- expression / localization of EHTM2 (EHTM2): significantly abrogated
- expression / nuclear localization of SETDB1 (SETDB1): significantly abrogated
- p300 nuclear expression (p300): significantly decreased
- colocalization of acetylated PD-L1 and p300 [3]: significantly decreased
- PD-L2 nuclear localization (PD-L2): significantly inhibited

SMILES: CCCCCCCCCCCCCC(=O)N[C@@H](CC(C)C)C(=O)N[C@H](C(=O)N[C@@H](Cc1ccccc1)C(=O)N[C@H](C(=O)N[C@@H](Cc1ccccc1)C(=O)N[C@@H](CCCNC(=N)N)C(=O)N[C@@H](CC(C)C)C(=O)N[C@@H](CCCNC(=N)N)C(=O)N[C@@H](CCC(N)=O)C(=O)NCC(=O)N[C@@H](CCCNC(=N)N)C(=O)N[C@@H](CCSC)C(=O)N[C@@H](CCSC)C(=O)N[C@@H](CC(=O)O)C(=O)N[C@H](C(=O)N[C@@H](CCCCN)C(=O)N[C@@H](CCCCN)C(N)=O)C(C)C)[C@@H](C)CC)[C@@H](C)O [Peptide P2, Myristoyl-LTFIFRLRQGRMMDVKK-NH2] (Myristoyl-LTFIFRLRQGRMMDVKK-NH2)
- COI (Cell Count) (MDA-MB-231 cells): 6317
- COI, Live Single Cells (Cell Count) (MDA-MB-231 cells): 4402
- COI, Single (Cell Count) (MDA-MB-231 cells): 4580
- Total Cell Count (MDA-MB-231 cells): 12706
- Viable Cells (%) (MDA-MB-231 cells): 96.11%
- CD44^hiCD24^lo CSC % [1]: 2.82%
- COI/Single Cells/Live/CD44^hiCD24^lo CSCs Count [1]: 123
- % Viable Cells (MCF7 cells): 97.19%
- COI Count (MCF7 cells): 5603
- COI/Single Cell Count (MCF7 cells): 4482
- COI/Single Cells/Live Count (MCF7 cells): 4356
- Total Count (MCF7 cells): 10000
- CSC inhibition (%) (induced MCF7 cells): 59.93%
- nuclear expression of PD-L1 (PD-L1): inhibited
- Fn/c of acetylated PD-L1 [2]: significantly reduced
- total nuclear fluorescence intensity (TNFI) of acetylated PD-L1 [2]: significantly reduced
- expression of SNAI1 (SNAI1): uniformly inhibited
- expression / localization of EHTM2 (EHTM2): significantly abrogated
- expression / nuclear localization of SETDB1 (SETDB1): significantly abrogated
- p300 nuclear expression (p300): significantly decreased
- colocalization of acetylated PD-L1 and p300 [3]: significantly decreased
- PD-L2 nuclear localization (PD-L2): significantly inhibited

SMILES: CCCCCCCCCCCCCC(=O)N[C@@H](CC(C)C)C(=O)N[C@H](C(=O)N[C@@H](Cc1ccccc1)C(=O)N[C@H](C(=O)N[C@@H](Cc1ccccc1)C(=O)N[C@@H](CCCNC(=N)N)C(=O)N[C@@H](CC(C)C)C(=O)N[C@@H](CCCNC(=N)N)C(=O)N[C@@H](CCCCNC(C)=O)C(=O)NCC(=O)N[C@@H](CCCNC(=N)N)C(=O)N[C@@H](CCSC)C(=O)N[C@@H](CCSC)C(=O)N[C@@H](CC(=O)O)C(=O)N[C@H](C(=O)N[C@@H](CCCCN)C(=O)N[C@@H](CCCCN)C(N)=O)C(C)C)[C@@H](C)CC)[C@@H](C)O [Peptide P3, Myristoyl-LTFIFRLRK(Ac)GRMMDVKK-NH2] (Myristoyl-LTFIFRLRK(Ac)GRMMDVKK-NH2)
- COI (Cell Count) (MDA-MB-231 cells): 6874
- COI, Live Single Cells (Cell Count) (MDA-MB-231 cells): 5099
- COI, Single (Cell Count) (MDA-MB-231 cells): 5237
- Total Cell Count (MDA-MB-231 cells): 20311
- Viable Cells (%) (MDA-MB-231 cells): 97.36%
- CD44^hiCD24^lo CSC % [1]: 3.26%
- COI/Single Cells/Live/CD44^hiCD24^lo CSCs Count [1]: 162
- % Viable Cells (MCF7 cells): 98.47%
- COI Count (MCF7 cells): 6007
- COI/Single Cell Count (MCF7 cells): 5039
- COI/Single Cells/Live Count (MCF7 cells): 4962
- Total Count (MCF7 cells): 10000
- CSC inhibition (%) (induced MCF7 cells): 53.67%
- nuclear expression of PD-L1 (PD-L1): inhibited
- Fn/c of acetylated PD-L1 [2]: significantly reduced
- total nuclear fluorescence intensity (TNFI) of acetylated PD-L1 [2]: significantly reduced
- expression of SNAI1 (SNAI1): uniformly inhibited
- expression / localization of EHTM2 (EHTM2): significantly abrogated
- expression / nuclear localization of SETDB1 (SETDB1): significantly abrogated
- expression of H3K9me3 (H3K9me3): strongly inhibited
- expression of 5-methylcytosine (5-methylcytosine): strongly inhibited
- expression of ABCBS (ABCBS): strongly inhibited
- p300 nuclear expression (p300): significantly decreased; also recorded: greatest effect
- colocalization of acetylated PD-L1 and p300 [3]: significantly decreased
- PD-L2 nuclear localization (PD-L2): significantly inhibited

— US20200339691A1, “PROTEINACEOUS MOLECULES AND USES THEREFOR” (priority 2018, published 2020)
